# Columns and labels:
# Type in all cases: in vivo
# [1] = tested on: Russian thistle (Salsola iberica); experiment: Test F combination of compound 2 with bromoxynil, postemergence; details: 15 days, mean of three replicates, scale 0 to 100
# Method: Test F evaluated the effect of combining compound 2 with bromoxynil. The test species for this experiment was Russian thistle (Salsola iberica), which was prepared by sowing seeds into a blend of loam soil and sand. Test chemicals were formulated in a non-phytotoxic solvent mixture that included a surfactant and applied postemergence to plants ranging in height from 12 to 20 cm. […] Treatments consisted of Compound 2, bromoxynil, or their combination, using a spray volume of 457 L/ha. Each treatment was replicated three times. Treated plants and untreated controls were maintained in a greenhouse for 15 days, after which time all plants were visually evaluated and compared to the untreated controls. […] Colby's Equation was used to determine the herbicidal effects expected from the mixtures. Colby's Equation (Colby, S.
# [2] = tested on: bluegrass (annual bluegrass, Poa annua); experiment: Test C plant response; details: Preemergence, scale 0 to 100
# [3] = tested on: Italian ryegrass (Lolium multiflorum); experiment: Test C plant response; details: Preemergence, scale 0 to 100
# [4] = tested on: oilseed rape (Brassica napus); experiment: Test C plant response; details: Preemergence, scale 0 to 100
# [5] = tested on: Russian thistle (Salsola iberica); experiment: Test C plant response; details: Preemergence, scale 0 to 100
# [6] = tested on: spring wheat (Triticum aestivum); experiment: Test C plant response; details: Preemergence, scale 0 to 100
# [7] = tested on: buckwheat (wild buckwheat, Polygonum convolvulus); experiment: Test C plant response; details: Preemergence, scale 0 to 100
# [8] = tested on: winter wheat (Triticum aestivum); experiment: Test C plant response; details: Preemergence, scale 0 to 100
smiles,measurement,setting,value
"O=C1CCCC(O)=C1C(=O)c1cnc(-c2ccccc2)n(-c2ccccc2)c1=O [Compound 2, 5-[(2-hydroxy-6-oxo-1-cyclohexen-1-yl)carbonyl]-2,3-diphenyl-4(3H)-pyrimidinone]",Russian Thistle Obsd. (observed effect),[1]; Cmpd 2 62 g a.i./ha alone,42
same,Russian Thistle Obsd. (observed effect),[1]; Cmpd 2 125 g a.i./ha alone,52
same,Plant response rating: Bluegrass,[2]; 62 g ai/ha,0
same,Plant response rating: Bluegrass,[2]; 125 g ai/ha,0
same,Plant response rating: Bluegrass,[2]; 16 g ai/ha,0
same,Plant response rating: Bluegrass,[2]; 31 g ai/ha,0
same,"Plant response rating: Ryegrass, Italian",[3]; 62 g ai/ha,0
same,"Plant response rating: Ryegrass, Italian",[3]; 125 g ai/ha,0
same,"Plant response rating: Ryegrass, Italian",[3]; 16 g ai/ha,0
same,"Plant response rating: Ryegrass, Italian",[3]; 31 g ai/ha,0
same,Plant response rating: Oilseed Rape,[4]; 62 g ai/ha,35
same,Plant response rating: Oilseed Rape,[4]; 125 g ai/ha,65
same,Plant response rating: Oilseed Rape,[4]; 16 g ai/ha,0
same,Plant response rating: Oilseed Rape,[4]; 31 g ai/ha,20
same,Plant response rating: Russian Thistle,[5]; 62 g ai/ha,0
same,Plant response rating: Russian Thistle,[5]; 16 g ai/ha,0
same,Plant response rating: Russian Thistle,[5]; 31 g ai/ha,0
same,"Plant response rating: Wheat, Spring",[6]; 62 g ai/ha,0
same,"Plant response rating: Wheat, Spring",[6]; 125 g ai/ha,0
same,"Plant response rating: Wheat, Spring",[6]; 16 g ai/ha,0
same,"Plant response rating: Wheat, Spring",[6]; 31 g ai/ha,0
same,"Plant response rating: Buckwheat, Wild",[7]; 62 g ai/ha,0
same,"Plant response rating: Buckwheat, Wild",[7]; 125 g ai/ha,0
same,"Plant response rating: Buckwheat, Wild",[7]; 16 g ai/ha,0
same,"Plant response rating: Buckwheat, Wild",[7]; 31 g ai/ha,0
same,"Plant response rating: Wheat, Winter",[8]; 62 g ai/ha,0
same,"Plant response rating: Wheat, Winter",[8]; 125 g ai/ha,0
same,"Plant response rating: Wheat, Winter",[8]; 16 g ai/ha,0
same,"Plant response rating: Wheat, Winter",[8]; 31 g ai/ha,0
